According to publication PMC8268181, “Pharmacokinetic evaluation of Chalcone derivatives with antimalarial activity in New Zealand White Rabbits” (BMC Research Notes, 2021):
“Also recorded” adds a separate entry of the source. Read-outs that look alike come from different tables or passages of the source.

Assay: In vivo pharmacokinetic study, single intraperitoneal/oral dose, plasma concentration by RP-HPLC
Set-up: species or system New Zealand White rabbits
Details: for Cmax / C0 / AUC(0-t) / half-life / Tmax: both sexes, New Zealand White, plasma; for Cmax: read-out: Cmax (peak plasma concentration); for C0: read-out: C0 (concentration of administrated drug at time zero); for AUC(0-t): linear trapezoidal method, read-out: AUC0–48 (area under the total plasma concentration–time curve); for half-life: read-out: t1/2 (elimination half-life) (converted); for Tmax: rabbit, read-out: tmax (time to reach the peak plasma concentration); for increased bioavailability as compared to in vitro concentration: in vitro concentration from ref 15; for bioavailability (in words): single dose, derivative 1 intraperitoneal, derivatives 2 and 3 oral
Excerpt: The ten healthy adult New Zealand White rabbits weighing between 1.75–2.75 kg of either sex were procured from the institute Advanced Facility for Small Animal Research, PGIMER Chandigarh, after approval from the Institutional Animal Ethics Committee Ref. No. 69/IAEC/418 as per the Committee for the Purpose of Control and Supervision of Experiments on Animals (CPCSEA) guidelines. The animals were housed in polypropylene cages under standard laboratory conditions at controlled temperature (25 ± °C) and 12-h light/dark cycles until the end of the experimental period. Animals were given free access to diet and water in a room and were fasten for at least 12 h prior to experiment. To achieve meaningful statistical results, we used a minimally sufficient number of animals in all cases. A fifteen-days washout period was carried out, which allows animals to completely recover and clear off the administered derivatives.
A total of ten healthy adult New Zealand White rabbits were divided into three groups; (i) derivative 1 treated group, (ii) derivative 2 treated group, and (iii) derivative 3 treated group. The whole experiment was performed in two batches with each batches containing n = 3 animals per group. The second batch with same groups were repeated after giving fifteen-days washout period which helps animals to recover and clear off previous administered derivatives. The three chalcone derivatives were administered at effective dose concentration [dose extrapolated from in vitro study, [15] as per OECD GLP compliance. A single dose of each chalcone derivatives 1, 2 & 3 (suspended in 0.5% carboxymethyl cellulose) were administered to each animal in the early morning at 7:00 am, which was noted as 0 h and then blood samples (1 mL) of animals were collected at specific time intervals of 0, 0.25 h, 0.5 h, 1 h, 2 h, 4 h, 6 h, 8 h, 12 h, 24 h, 36 h, 48 h from marginal ear vein in heparin containing vials. These derivatives were either administered orally through orogastric tube or intraperitoneally. All blood samples were collected from the marginal ear vein after topical anaesthesia with 4% lignocaine solution. No euthanasia procedure was required during the study, and after completion of experiments all animals were kept in rehabilitation centre according to CPCSEA guidelines, in the institute Advanced Facility for Small Animal Research, PGIMER, Chandigarh. Plasma samples for the determination of drug concentration were prepared for RP-HPLC analysis.
Rabbit blood samples were accumulated in heparin contained dry evacuated tubes from marginal ear veins of healthy rabbits as per the standard operating procedure. These samples were centrifuged within 1 h of collection, for segregation of plasma at 1500 rpm for 10 min. The segregated plasma was preserved at […] till assay. Prior experimental analysis the deproteinization of the plasma samples was done in the mixture of methanol and water (90:10 v/v), then vortexed for at least 10–15 min, after while centrifuged for at least 15 min at 6000 rpm, and finally supernatants were pipette-out in a new vial. The supernatants were then spiked with the measured volume of diluted stock solutions of chalcone making up to final concentrations of 10–100 μg/mL.
Each sample has been collected from rabbits at a different time interval and plasma was separated and either processed for assay procedure or stored at – 20 °C in deep freezer till experiment. On the day of the experiment, 100 µL of plasma from each vial was transferred to another and mixed with 100 µL of acetonitrile (HPLC analytical Grade). Then was kept for 5 min at room temperature and then centrifuged at 7000 rpm for 10 min. Supernatant was separated and reconstituted with the mobile phase and finally sterile filter with 0.22 µm membrane filter before the assay procedure.
Chromatographic separation was achieved as mentioned earlier with slight modification. […]

[1] = ip, derivative 1, single intraperitoneal dose 5.46 mg/1.5 kg rabbit, mean ± SEM, n = 6
[2] = 4.85 mg/kg, derivative 2, single oral dose 7.28 mg/1.5 kg rabbit, mean ± SEM, n = 5
[3] = derivative 2, single oral dose 7.28 mg/1.5 kg rabbit (4.85 mg/kg), mean ± SEM, n = 5
[4] = 3.64 mg/kg, derivative 3, single oral dose 5.46 mg/1.5 kg rabbit, mean ± SEM, n = 6

## COc1ccc(/C=C/C(=O)c2cc(OC)ccc2OC)cc1 [Derivative 1, (E)-1-(2,5-Dimethoxyphenyl)-3-(4-methoxyphenyl)prop-2-en-1-one]
ip, derivative 1, single intraperitoneal dose 5.46 mg/1.5 kg rabbit (text: 3.84 mg/kg), mean ± SEM, n = 6
  Cmax: 1960 ± 460 ng/mL
[1]
  C0: 966 ± 25 ng/mL
  AUC(0-t): 2.94 ± 0.83 µg·h/mL
  half-life: 12.6 ± 2.09 h
ip, 5.46 mg/1.5 kg rabbit, derivative 1, single intraperitoneal dose 5.46 mg/1.5 kg rabbit (text: 3.84 mg/kg), mean ± SEM, n = 6
  Tmax: 0.33 ± 0.05 h
Compound 1, single intraperitoneal dose
  increased bioavailability as compared to in vitro concentration: three fold
Derivative 1, after IP administration
  first blood sampling time at which derivative was spotted in plasma: 15 min
Derivative 1, single 3.84 mg/kg intraperitoneal dose
  mean CL: 0.28 ± 0.08 L/h
Derivative 1, single intraperitoneal dose 5.46 mg/1.5 kg rabbit, mean ± SEM, n = 6
  Vd (volume of distribution): 7.31 ± 0.29 L
  bioavailability (in words): very low bioavailability

## COc1ccc(/C=C/C(=O)c2cc(OC)c(OC)c(OC)c2)cc1 [Derivative 2, (E)-(3,4,5-Trimethoxyphenyl)-3-(4-methoxyphenyl)prop-2-en-1-one]
[2]
  C0: 986 ± 4 ng/mL
  AUC(0-t): 3760 ± 739 µg·h/mL
  half-life: 93.3 ± 32.6 h
po, 4.85 mg/kg, derivative 2, single oral dose 7.28 mg/1.5 kg rabbit (4.85 mg/kg), mean ± SEM, n = 5
  Tmax: 3.84 h
[3]
  Cmax: 69900 ± 5490 ng/mL
  tmax (time to reach the peak plasma concentration): 3.4 ± 0.79 h
Compound 2, single oral dose
  increased bioavailability as compared to in vitro concentration: tenfold
Derivative 2, single 4.85 mg/kg oral dose
  mean CL: 0.15 ± 0.05 L/h
Derivative 2, single oral administration, compared to other two chalcone derivatives
  systemic exposure (in words): comparatively better systemic exposure
Derivative 2, single oral dose 4.85 mg/kg
  time the peak concentration remained constant: 3 to 4 h
Derivative 2, single oral dose 7.28 mg/1.5 kg rabbit, mean ± SEM, n = 5
  Vd (volume of distribution): 10.72 ± 0.66 L

## COc1ccc(/C=C/C(=O)c2cc(OC)c(OC)c(OC)c2)cc1OC [Derivative 3, (E)-1-(3,4,5-Trimethoxyphenyl)-3-(3,4-dimethoxyphenyl)prop-2-en-1-one]
[4]
  C0: 944 ± 7 ng/mL
  AUC(0-t): 14.2 ± 3.78 µg·h/mL
  half-life: 13.3 ± 1.67 h
po, 3.64 mg/kg, derivative 3, single oral dose 5.46 mg/1.5 kg rabbit (3.64 mg/kg), mean ± SEM, n = 6
  Tmax: 2.83 ± 0.87 h
Derivative 3, single oral dose 5.46 mg/1.5 kg rabbit (3.64 mg/kg), mean ± SEM, n = 6
  Cmax: 3740 ± 1640 ng/mL
Compound 3, single oral dose
  increased bioavailability as compared to in vitro concentration: 25 fold
Derivative 3, single 3.64 mg/kg oral dose
  mean CL: 0.53 ± 0.10 L/h
Derivative 3, single oral dose
  kinetics of metabolism / elimination phase (in words): first order kinetics
Derivative 3, single oral dose 5.46 mg/1.5 kg rabbit, mean ± SEM, n = 6
  Vd (volume of distribution): 9.12 ± 0.73 L
  bioavailability (in words): poor bioavailability; also recorded: very low bioavailability
